The structures appear in SMILES notation.

Data on 50 compounds can be found in patent publication EP4563571A1, “PRMT5 INHIBITORS” (Beijing Earthwise Technology Co., Ltd., priority 2022, dated 2024).

One assay has as its system HCT116^MTAP Deletion cells. Kind of assay: Anti-proliferation assay on cells (Cell-Titer Glo, 10 days). Particulars: 240 h, HCT116^MTAP Deletion cells, 10 days incubation, CTG readout; read-out: HCT116^MTAP Deletion GI50. The format is cell-based. As for the experimental part:
HCT116^MTAP Deletion cells were from Pharmaron (China); HCT116 cells were from ATCC; McCoy's 5A medium was purchased from Invitrogen (USA); penicillin-streptomycin and fetal bovine serum were purchased from Gibco (USA); a 384-well plate was purchased from PerkinElmer (USA); and Cell-Titer Glo reagent was purchased from Promega (USA).
Compound dissolution: All the compounds were dissolved in dimethyl sulfoxide (DMSO) and then stored. The compounds were stored at room temperature in a dry condition for 3 months for short term storage or at -20 °C for long term storage.
Cell culture and passaging
The cells were cultured strictly in accordance with ATCC requirements. The cell culture medium (McCoy's 5A medium + 10% fetal bovine serum + 1% penicillin + streptomycin) was transferred to a 15 mL centrifuge tube and centrifuged at 1000 rpm for 5 min. The supernatant was removed. The cells were resuspended with complete culture medium, inoculated into a culture dish at the required density, and cultured in an incubator at 37 °C, 95% humid air, and 5% carbon dioxide. The culture medium was replenished or the cells were passaged every 2-3 days depending on the cell growth condition.
Cell proliferation activity assay
When the confluency of cells in the culture dish reached about 90%, the cells were washed twice with PBS, and then treated with trypsin to become single cells. The cells were counted, and 40µl of the cells was inoculated into each well of a 384-well plate (50 cells/well). The plate was equilibrated at 37 °C and 5% carbon dioxide for 10 to 15 minutes. The compounds were injected into the 384-well plate using Echo550, and positive control and negative control (0.1% DMSO) were set up. Each compound was subjected to a 3-fold dilution, resulting in 10 concentration gradients, in duplicate, and the content of DMSO was 0.1%. The 384-well plate was incubated in a cell culture incubator for 10 days.
Then, 40 µl of cell proliferation assay reagent (CTG) was added to the 384-well plate, and the plate was shaken to mix well. Then, the 384-well plate was incubated at 37 °C and 5% carbon dioxide in the dark for 30 minutes. The data were read using the Envision multifunctional microplate reader. […] According to the different drug concentrations and their corresponding inhibition rates, the GI50 curve was drawn using GraphPad 8.0 software. The data were analyzed, and the final IC50 value was obtained.
The GI50 is the concentration giving 50% growth inhibition. For the compound `Nc1ncc(NC(=O)C(=O)N(Cc2ccc(C(F)(F)F)cn2)Cc2ccnc3[nH]ccc23)c2c1COC2` [Example 64], the GI50 fell in the range of 10 to 100 nM.

For the compound `CN(C(=O)C(=O)Nc1cnc(N)c2c1cnn2C)C1COc2cc(C3CCOCC3)ccc21` (centres unmarked) [Example 190], the GI50 lay in the range of 10 to 100 nM.

On to `CN(C(=O)C(=O)Nc1cnc(N)c2c1cnn2C)C1COc2cc(-c3ccccc3F)ccc21` (centres unmarked) [Example 214], for which the concentration for 50% growth inhibition (GI50) is below 10 nM.

Take `CCC(C)N(Cc1cc(C)n(C)n1)C(=O)C(=O)Nc1cnc(N)c(C)c1` (centres unmarked) [Example 75]: the GI50 is 100 to 1000 nM.

As to `CCC(C)N(Cc1ccn(C)n1)C(=O)C(=O)Nc1cnc(N)c(C)c1` (centres unmarked) [Example 72], the GI50 was 1000 to 10000 nM.

As to `CN(C(=O)C(=O)Nc1cnc(N)c2c1cnn2C)C1COc2cc(-c3ccccc3)ccc21` (centres unmarked) [Example 216], the concentration for 50% growth inhibition (GI50) fell in the range of 10 to 100 nM.

For the compound `CN(C(=O)C(=O)Nc1cnc(N)c2c1cnn2C)C1COCc2cc(-c3cnn4c3CCC4)ccc21` (centres unmarked) [Example 154], the concentration for 50% growth inhibition (GI50) was below 10 nM.

Consider `CCC(C)N(Cc1ccc(C(F)(F)F)cn1)C(=O)C(=O)Nc1cnc(N)c(C2CC2)c1` (centres unmarked) [Example 78], for which the 50% growth inhibitory concentration (GI50) fell in the range of 100 to 1000 nM.

Consider `CC(C)N(C(=O)C(=O)Nc1cnc(N)c2c1cnn2C)C1COc2cc(C(F)(F)F)ccc21` (centres unmarked) [Example 116], for which the 50% growth inhibitory concentration (GI50) fell in the range of 10 to 100 nM.

Consider `CN(C(=O)C(=O)Nc1cnc(N)c2c1cnn2C)C1COc2cc(C(F)(F)F)ncc21` (centres unmarked) [Example 188], for which the GI50 was in the range of 10 to 100 nM.

Take `CN(C(=O)C(=O)Nc1cnc(N)c2c1cnn2C)C1COCc2cc(C3(F)CNC3)ccc21` (centres unmarked) [Example 203]: the 50% growth inhibitory concentration (GI50) fell in the range of 10 to 100 nM.

As to `Cn1ncc2c(NC(=O)C(=O)N(CC3CC3)C3COc4cc(C(F)(F)F)ccc43)cnc(N)c21` (centres unmarked) [Example 123], the GI50 is below 10 nM.

Take `CCN(C(=O)C(=O)Nc1cnc(N)c2c1cnn2C)C1COc2cc(C(F)(F)F)ccc21` (centres unmarked) [Example 121]: the GI50 is below 10 nM.

In the case of `CN(C(=O)C(=O)Nc1cnc(N)c2c1cnn2C)C1COCc2cc(C(F)(F)C(F)(F)F)ccc21` (centres unmarked) [Example 238], the GI50 was below 10 nM.

Consider `CCC(C)N(Cc1ccc(C2=CCN(C(=O)OC)CC2)cn1)C(=O)C(=O)Nc1cnc(N)c(C)c1` (centres unmarked) [Example 125-P1], for which the GI50 is below 10 nM.

As for `CN(C(=O)C(=O)Nc1cnc(N)c2c1cnn2C)C1COCc2cc(C(C)(C)C)ccc21` (centres unmarked) [Example 217], the 50% growth inhibitory concentration (GI50) is below 10 nM.

With `Cn1ncc2c(NC(=O)C(=O)N(C3CC3)C3COc4cc(C(F)(F)F)ccc43)cnc(N)c21` (centres unmarked) [Example 118], the GI50 is below 10 nM.

For the compound `COc1ncc(NC(=O)C(=O)N(C)C2COCc3cc(C4=CCOCC4)ccc32)cc1C(N)=O` (centres unmarked) [Example 166], the GI50 is 100 to 1000 nM.

With `CN(C(=O)C(=O)Nc1cnc(N)c2c1cnn2C)C1COc2c1ccc(C(F)(F)F)c2F` (centres unmarked) [Example 208], the GI50 was in the range of 10 to 100 nM.

Turning to `CN(C(=O)C(=O)Nc1cnc(N)c2c1cnn2C)C1COCc2c1cccc2C(F)(F)F` (centres unmarked) [Example 148], the GI50 lay in the range of 10 to 100 nM.

Turning to `CN(C(=O)C(=O)Nc1cnc(N)c2c1cnn2C)C1COCc2cc(C3=CCCOC3)ccc21` (centres unmarked) [Example 108], the 50% growth inhibitory concentration (GI50) lay within 10 to 100 nM.

Consider `CN(C(=O)C(=O)Nc1cnc(N)c2c1cnn2C)C1COCc2ncccc21` (centres unmarked) [Example 151], for which the GI50 is 10 to 100 nM.

Consider `CN(C(=O)C(=O)Nc1cnc(N)c2c1COC2)C1CCOCc2cc(C(F)(F)F)ccc21` (centres unmarked) [Example 49], for which the GI50 was in the range of 100 to 1000 nM.

For the compound `CN(C(=O)C(=O)Nc1cnc(N)c2c1cnn2C)C1COCc2cc(-c3cnc(C(F)(F)F)s3)ccc21` (centres unmarked) [Example 191], the 50% growth inhibitory concentration (GI50) is below 10 nM.

In the case of `CCN(C(=O)C(=O)Nc1cnc(N)c2c1cnn2C)C1COCc2cc(C(F)(F)F)ccc21` (centres unmarked) [Example 101], the 50% growth inhibitory concentration (GI50) was below 10 nM.

Consider `CN(C(=O)C(=O)Nc1cnc(N)c2c1cnn2C)C1COc2ccccc2C1` (centres unmarked) [Example 234], for which the concentration for 50% growth inhibition (GI50) fell in the range of 100 to 1000 nM.

Take `CCC(C)N(Cc1ncc(C(F)(F)F)cn1)C(=O)C(=O)Nc1cnc(N)c(C)c1` (centres unmarked) [Example 82]: the GI50 was in the range of 100 to 1000 nM.

In the case of `CN(C(=O)C(=O)Nc1cnc(N)c2c1cnn2C)C1COCc2nc(-c3ccccc3)ccc21` (centres unmarked) [Example 219], the GI50 is below 10 nM.

Staying with this assay, now noted: HCT116^MTAP Deletion cells, 10 days incubation, CTG readout; read-out: HCT116^MTAP Deletion GI50.
For the compound `Nc1ncc(NC(=O)C(=O)N(Cc2ccc(C(F)(F)F)cn2)CC2CC2)c2c1COC2` [Example 40], the 50% growth inhibitory concentration (GI50) is 100 to 1000 nM.

Regarding `CN(C(=O)C(=O)Nc1cnc(N)c2c1cnn2C)C1COCc2c1ccc(Cl)c2Cl` (racemic) [compound 168], the GI50 was below 10 nM.

On to `CN(C(=O)C(=O)Nc1cnc(N)c2c1cnn2C)C1COc2cc(C3=CCOCC3)ccc21` (single isomer, unassigned) [Example 153-P2], for which the GI50 lay in the range of 100 to 1000 nM.

For `CCC(C)N(Cc1ccc(OCC(F)(F)F)nn1)C(=O)C(=O)Nc1cnc(N)c(C)c1` (centres unmarked) [Example 63], the GI50 fell in the range of 100 to 1000 nM.

As for `CN(C(=O)C(=O)Nc1cnc(N)c2c1cnn2C)C1COCc2c1ccc(F)c2F` (centres unmarked) [Example 141-P2], the 50% growth inhibitory concentration (GI50) was 100 to 1000 nM.

As for `CN(C(=O)C(=O)Nc1cnc(N)c2c1cnn2C)C1COc2cc(-c3cnn(C4CC4)c3)ccc21` (centres unmarked) [Example 211], the GI50 was below 10 nM.

As for `CN(C(=O)C(=O)Nc1cnc(N)c2c1cnn2C)C1COc2nc(C(F)(F)F)ccc21` (centres unmarked) [Example 159], the GI50 was in the range of 100 to 1000 nM.

With `Cc1cc(NC(=O)C(=O)N(Cc2ccc(C(F)(F)F)cn2)[C@H](C)C2CC2)cnc1N` [Example 36], the 50% growth inhibitory concentration (GI50) is 10 to 100 nM.

Turning to `CCC(C)N(Cc1ccc(C(F)(F)F)cn1)C(=O)C(=O)Nc1cnc(N)c(C)c1` (single isomer, unassigned) [Example 45-P2], the 50% growth inhibitory concentration (GI50) was in the range of 10 to 100 nM.

Consider `Cc1ncc(-c2ccc3c(n2)COCC3N(C)C(=O)C(=O)Nc2cnc(N)c3c2cnn3C)s1` (racemic) [compound 209], for which the 50% growth inhibitory concentration (GI50) is below 10 nM.

On to `CCC(C)N(Cc1ccc(C(F)(F)F)cn1)C(=O)C(=O)Nc1cnc(N)c2c1COC2C` (centres unmarked) [Example 10], for which the concentration for 50% growth inhibition (GI50) fell in the range of 10 to 100 nM.

In the case of `CCC(C)N(Cc1cnn(C)c1)C(=O)C(=O)Nc1cnc(N)c(C)c1` (centres unmarked) [Example 73], the 50% growth inhibitory concentration (GI50) is above 10000 nM.

`CN1CC=C(c2ccc3c(c2)COCC3N(C)C(=O)C(=O)Nc2cnc(N)c3c2cnn3C)CC1` (centres unmarked) [Example 160]: the 50% growth inhibitory concentration (GI50) was 10 to 100 nM.

As for `Cc1nc(NC(=O)C(=O)N(Cc2ccc(C(F)(F)F)cn2)[C@H](C)c2ncccn2)cnc1N` [Example 27], the GI50 lay within 100 to 1000 nM.

With `Cc1ccc2c(c1)OCC2N(C)C(=O)C(=O)Nc1cnc(N)c2c1cnn2C` (centres unmarked) [Example 233], the GI50 was in the range of 10 to 100 nM.

In the case of `CN(C(=O)C(=O)Nc1cnc(N)c2c1cnn2C)C1COCc2c(F)cc(Cl)cc21` (racemic) [compound 155], the GI50 was 10 to 100 nM.

For `CN(C(=O)C(=O)Nc1cnc(N)c2c1cnn2C)C1COc2cc(Cl)c(Cl)cc21` (racemic) [compound 186], the GI50 is below 10 nM.

With `Cc1cc(NC(=O)C(=O)N(Cc2ccc(C(F)(F)F)cn2)C2CCC2)cnc1N` [Example 13], the GI50 was in the range of 100 to 1000 nM.

`COc1ncc(NC(=O)C(=O)N(Cc2ccc(C(F)(F)F)cn2)[C@H](C)c2ncccn2)cc1C(N)=O` [Example 25]: the GI50 was 10 to 100 nM.

Turning to `CC1OCc2c(NC(=O)C(=O)N(C)C3COCc4cc(C(F)(F)F)ccc43)cnc(N)c21` (single isomer, unassigned) [Example 146-P2], the GI50 was 10 to 100 nM.

`C[C@H](c1ncccn1)N(Cc1ccc(C(F)(F)F)cn1)C(=O)C(=O)Nc1cnc(N)c(Br)c1` [Example 24]: the GI50 was 100 to 1000 nM.

As to `CCOc1ccc(CN(C(=O)C(=O)Nc2cnc(N)c(C)c2)[C@H](C)c2ncccn2)nn1` [Example 35], the GI50 fell in the range of 10 to 100 nM.
